The test system of experiment [1] is RS4;11 acute lymphoblastic leukemia cells. In words: Cell viability, tetrazolium-based MTS assay, RS4;11. Conditions: Homo sapiens, RS4;11, 48 h, read-out: Anti-Cancer Activity EC50 (48 hr), RS4. As for the experimental part:
(§1) Acute lymphoblastic leukemia cells (MOLT-4 and RS4;11) were incubated with increasing concentrations of Bcl-xL/Bcl-2 degraders for 48 h. Cell viability was measured by tetrazolium-based MTS assay.

Experiment [2] has as its system MOLT-4 acute lymphoblastic leukemia cells. As to the kind of experiment: Cell viability, tetrazolium-based MTS assay, MOLT-4. Conditions: Homo sapiens, MOLT-4, 48 h; read-out: Anti-Cancer Activity EC50 (48 hr), MOLT-4. The procedure: as §1

Structures are written as SMILES. Where only a bound is given, the exact number is not on record here.

As to `CC1(CN2CCN(c3ncc(C(=O)NCCNc4cccc5c4C(=O)N(C4CCC(=O)NC4=O)C5=O)cn3)CC2)CCC(c2ccc(Cl)cc2)=C(CN2CCN(c3ccc(C(=O)NS(=O)(=O)c4ccc(N[C@H](CCN5CCOCC5)CSc5ccccc5)c(S(=O)(=O)C(F)(F)F)c4)cc3)CC2)C1` (stereo partly drawn) [Compound 19, 2-(4-((4′-chloro-4-methyl-6-((4-(4-(((4-(((R)-4-morpholino-1-(phenylthio)butan-2-yl)amino)-3-((trifluoromethyl)sulfonyl)phenyl)sulfonyl)carbamoyl)phenyl)piperazin-1-yl)methyl)-2,3,4,5-tetrahydro-[1,1′-biphenyl]-4-yl)methyl)piperazin-1-yl)-N-(2-((2-(2,6-dioxopiperidin-3-yl)-1,3-dioxoisoindolin-4-yl)amino)ethyl)pyrimidine-5-carboxamide], the concentration giving a half-maximal response (EC50) in experiment [1] lay within 10 to 100 nM; in experiment [2] it was 1 to 10 nM.

For `CC1(CN2CCN(c3ncc(C(=O)NCCCCNc4cccc5c4C(=O)N(C4CCC(=O)NC4=O)C5=O)cn3)CC2)CCC(c2ccc(Cl)cc2)=C(CN2CCN(c3ccc(C(=O)NS(=O)(=O)c4ccc(N[C@H](CCN5CCOCC5)CSc5ccccc5)c(S(=O)(=O)C(F)(F)F)c4)cc3)CC2)C1` (stereo partly drawn) [Compound 20, 2-(4-((4′-chloro-4-methyl-6-((4-(4-(((4-(((R)-4-morpholino-1-(phenylthio)butan-2-yl)amino)-3-((trifluoromethyl)sulfonyl)phenyl)sulfonyl)carbamoyl)phenyl)piperazin-1-yl)methyl)-2,3,4,5-tetrahydro-[1,1′-biphenyl]-4-yl)methyl)piperazin-1-yl)-N-(4-((2-(2,6-dioxopiperidin-3-yl)-1,3-dioxoisoindolin-4-yl)amino)butyl)pyrimidine-5-carboxamide], the concentration for a half-maximal effect (EC50) is 10 to 100 nM in experiment [1] and 1 to 10 nM in experiment [2].

As for `CC1(CN2CCN(c3ncc(C(=O)NCCCCCCNc4cccc5c4C(=O)N(C4CCC(=O)NC4=O)C5=O)cn3)CC2)CCC(c2ccc(Cl)cc2)=C(CN2CCN(c3ccc(C(=O)NS(=O)(=O)c4ccc(N[C@H](CCN5CCOCC5)CSc5ccccc5)c(S(=O)(=O)C(F)(F)F)c4)cc3)CC2)C1` (stereo partly drawn) [Compound 21, 2-(4-((4′-chloro-4-methyl-6-((4-(4-(((4-(((R)-4-morpholino-1-(phenylthio)butan-2-yl)amino)-3-((trifluoromethyl)sulfonyl)phenyl)sulfonyl)carbamoyl)phenyl)piperazin-1-yl)methyl)-2,3,4,5-tetrahydro-[1,1′-biphenyl]-4-yl)methyl)piperazin-1-yl)-N-(6-((2-(2,6-dioxopiperidin-3-yl)-1,3-dioxoisoindolin-4-yl)amino)hexyl)pyrimidine-5-carboxamide], in experiment [1], the IC50 was 10000 to 100000 nM. Also, the half-maximal effective concentration (EC50) in experiment [2] fell in the range of 10 to 100 nM.

Turning to `CC1(CN2CCN(c3ccc(OCCCCCN4CCN(c5cccc6c5C(=O)N(C5CCC(=O)NC5=O)C6=O)CC4)cn3)CC2)CCC(c2ccc(Cl)cc2)=C(CN2CCN(c3ccc(C(=O)NS(=O)(=O)c4ccc(N[C@H](CCN5CCOCC5)CSc5ccccc5)c(S(=O)(=O)C(F)(F)F)c4)cc3)CC2)C1` (stereo partly drawn) [Compound 22, 4-(4-((4′-chloro-4-((4-(5-((5-(4-(2-(2,6-dioxopiperidin-3-yl)-1,3-dioxoisoindolin-4-yl)piperazin-1-yl)pentyl)oxy)pyridin-2-yl)piperazin-1-yl)methyl)-4-methyl-3,4,5,6-tetrahydro-[1,1′-biphenyl]-2-yl)methyl)piperazin-1-yl)-N-((4-(((R)-4-morpholino-1-(phenylthio)butan-2-yl)amino)-3-22 ((trifluoromethyl)sulfonyl)phenyl)sulfonyl)benzamide], the EC50 in experiment [1] and in experiment [2] was 10 to 100 nM throughout.

Take `CC1(CN2CCN(c3ccc(C#CCCCN4CCN(c5cccc6c5C(=O)N(C5CCC(=O)NC5=O)C6=O)CC4)cn3)CC2)CCC(c2ccc(Cl)cc2)=C(CN2CCN(c3ccc(C(=O)NS(=O)(=O)c4ccc(N[C@H](CCN5CCOCC5)CSc5ccccc5)c(S(=O)(=O)C(F)(F)F)c4)cc3)CC2)C1` (stereo partly drawn) [Compound 23, 4-(4-((4′-chloro-4-((4-(5-(5-(4-(2-(2,6-dioxopiperidin-3-yl)-1,3-26 dioxoisoindolin-4-yl)piperazin-1-yl)pent-1-yn-1-yl)pyridin-2-yl)piperazin-1-yl)methyl)-4-methyl-3,4,5,6-tetrahydro-[1,1′-biphenyl]-2-yl)methyl)piperazin-1-yl)-N-((4-(((R)-4-morpholino-1-(phenylthio)butan-2-yl)amino)-3-28 ((trifluoromethyl)sulfonyl)phenyl)sulfonyl)benzamide]: the EC50 in experiment [1] lay within 10 to 100 nM; in experiment [2] it was 10000 to 100000 nM.

As to `CC1(CN2CCCN(c3ccc4c(c3)CN(C3CCC(=O)NC3=O)C4=O)CC2)CCN(C[C@]2(C)CCC(c3ccc(Cl)cc3)=C(CN3CCN(c4ccc(C(=O)NS(=O)(=O)c5ccc(N[C@H](CCN6CCCOCC6)CSc6ccccc6)c(S(=O)(=O)C(F)(F)F)c5)cc4)CC3)C2)CC1` (stereo partly drawn) [Compound 136, N-((4-(((R)-4-(1,4-oxazepan-4-yl)-1-(phenylthio)butan-2-yl)amino)-3-((trifluoromethyl)sulfonyl)phenyl)sulfonyl)-4-(4-(((4R)-4′-chloro-4-((4-((4-(2-(2,6-dioxopiperidin-3-yl)-1-oxoisoindolin-5-yl)-1,4-diazepan-1-yl)methyl)-4-methylpiperidin-1-yl)methyl)-4-methyl-3,4,5,6-tetrahydro-[1,1′-biphenyl]-2-yl)methyl)piperazin-1-yl)benzamide], the 50% effective concentration (EC50) in experiment [1] and in experiment [2] was below 1 nM each time.

With `C[C@@]1(CN2CCC(CN3CCN(c4ccc(C(=O)N[C@H]5CCC(=O)NC5=O)c(F)c4)CC3)CC2)CCC(c2ccc(Cl)cc2)=C(CN2CCN(c3ccc(C(=O)NS(=O)(=O)c4ccc(N[C@H](CCN5CCCOCC5)CSc5ccccc5)c(S(=O)(=O)C(F)(F)F)c4)cc3)CC2)C1` [Compound 137, 4-(4-((1-(((R)-6-((4-(4-(((4-(((R)-4-(1,4-oxazepan-4-yl)-1-(phenylthio)butan-2-yl)amino)-3-((trifluoromethyl)sulfonyl)phenyl)sulfonyl)carbamoyl)phenyl)piperazin-1-yl)methyl)-4′-chloro-4-methyl-2,3,4,5-tetrahydro-[1,1′-biphenyl]-4-yl)methyl)piperidin-4-yl)methyl)piperazin-1-yl)-N-((S)-2,6-dioxopiperidin-3-yl)-2-fluorobenzamide], the EC50 in experiment [1] and in experiment [2] was 1 to 10 nM each time.

For the compound `C[C@@]1(CN2CCC(CN3CCN(c4ccc(C(=O)N[C@@H]5CCC(=O)NC5=O)c(F)c4)CC3)CC2)CCC(c2ccc(Cl)cc2)=C(CN2CCN(c3ccc(C(=O)NS(=O)(=O)c4ccc(N[C@H](CCN5CCCOCC5)CSc5ccccc5)c(S(=O)(=O)C(F)(F)F)c4)cc3)CC2)C1` [Compound 138, 4-(4-((1-(((R)-6-((4-(4-(((4-(((R)-4-(1,4-oxazepan-4-yl)-1-(phenylthio)butan-2-yl)amino)-3-((trifluoromethyl)sulfonyl)phenyl)sulfonyl)carbamoyl)phenyl)piperazin-1-yl)methyl)-4′-chloro-4-methyl-2,3,4,5-tetrahydro-[1,1′-biphenyl]-4-yl)methyl)piperidin-4-yl)methyl)piperazin-1-yl)-N-((R)-2,6-dioxopiperidin-3-yl)-2-fluorobenzamide], the concentration for a half-maximal effect (EC50) in experiment [1] and in experiment [2] was 1 to 10 nM each time.

For the origin of these results see patent US20260355323A1, “CEREBLON-RECRUITING BCL-XL/BCL-2 DUAL DEGRADERS” (University of Florida Research Foundation, Incorporated, priority 2022, published 2026).
